Among the data in patent US20260327243A1, “SPIRO-HETEROCYCLIC INHIBITORS OF KRAS G12C MUTANT PROTEINS AND USES THEREOF” (AMGEN INC., priority 2023, published 2026) are IC50 values, retold here.

The term IC50 denotes the concentration at which inhibition is half-maximal. Low values mean greater potency in that assay, high ones weaker potency in that assay.

The test deals with KRAS^G12C (Homo sapiens, UniProt P01116, C118A/G12C). As to the kind of experiment: Coupled Nucleotide Exchange Assay. The class given is biochemical. As to conditions: GDP-bound KRAS (aa 1-169) G12C/C118A; 2 h compound pre-incubation; SOS-mediated exchange, 30 min; cRAF binding (AlphaLISA). As for the experimental part: The KRAS^G12C coupled nucleotide exchange assay allows for the screening and profiling of KRAS^G12C antagonists/inhibitors by monitoring the binding of an effector protein (e.g., a Ras binding domain of Raf1, RBD-cRaf) to KRAS^G12C. Purified GDP-bound KRAS protein (aa 1-169), containing both G12C and C118A amino acid substitutions and an N-terminal His-tag, was pre-incubated in assay buffer (25 mM HEPES pH 7.4, 10 mM MgCl2, 0.01% Triton X-100, either with or without 0.1% BSA) with serially diluted compound for 2 h. For all subsequent steps, BSA was omitted and DTT was added to the reaction buffer at a final concentration of 1 mM. Following compound pre-incubation, purified SOS protein (aa 564-1049) and GTP (Roche 10106399001) were added to the assay wells and incubated for an additional 30 min. To determine the extent of inhibition of SOS-mediated nucleotide exchange, purified GST-tagged cRAF (aa 1-149), nickel chelate AlphaLISA acceptor beads (PerkinElmer AL108R), and AlphaScreen glutathione donor beads (PerkinElmer 6765302) were added to the assay wells and incubated for 5-30 min. The assay plates were then read on a plate reader measuring luminescence signal. Signal intensity of compound-containing wells were normalized to DMSO control, and data were analyzed using a 4-parameter logistic model to calculate IC50 values.
Chain of KRAS^G12C (P01116 1-169 isoform P01116-2 G12C/C118A): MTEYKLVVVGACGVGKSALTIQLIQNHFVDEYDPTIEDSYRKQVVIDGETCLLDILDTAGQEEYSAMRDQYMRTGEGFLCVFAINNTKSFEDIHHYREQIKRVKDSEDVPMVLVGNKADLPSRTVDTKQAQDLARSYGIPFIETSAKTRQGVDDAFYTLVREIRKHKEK
(Bead proximity is the source of the signal in Alpha formats.)
The compound `C=CC(=O)N1CCN(C2CN(c3cc(N4CCC5(CC4)CC5(F)F)nc(C(F)(F)F)c3C#N)C2)CC1` [Compound 3-036, 4-(3-(4-acryloylpiperazin-1-yl)azetidin-1-yl)-6-(1,1-difluoro-6-azaspiro[2.5]octan-6-yl)-2-(trifluoromethyl)nicotinonitrile] showed an IC50 of 6.7 µM.

The compound `C=CC(=O)N1CCN(C2CN(c3cc(N4CCC5(C=CC(C)O5)CC4)nc(C(F)(F)F)c3C#N)C2)CC1` (centres unmarked) [Compound 3-066, 4-(3-(4-acryloylpiperazin-1-yl)azetidin-1-yl)-6-(2-methyl-1-oxa-8-azaspiro[4.5]dec-3-en-8-yl)-2-(trifluoromethyl)nicotinonitrile] gave an IC50 of 0.55 µM.

On to `C=CC(=O)N1CCN(C2CN(c3cc(N4CCC5(CC4)OCCc4ccsc45)nc(C(F)(F)F)n3)C2)CC1` [Compound 3-064, 1-(4-(1-(6-(4′,5′-dihydrospiro[piperidine-4,7′-thieno[2,3-c]pyran]-1-yl)-2-(trifluoromethyl)pyrimidin-4-yl)azetidin-3-yl)piperazin-1-yl)prop-2-en-1-one], for which the IC50 was 5.7 µM.

For `C=CC(=O)N1CCN(C2CN(c3cc(N4CCC5(CC4)OCc4cc(Cl)ccc45)nc(C(F)(F)F)c3C#N)C2)CC1` [Compound 3-041, 4-(3-(4-acryloylpiperazin-1-yl)azetidin-1-yl)-6-(5-chloro-3H-spiro[isobenzofuran-1,4′-piperidin]-1′-yl)-2-(trifluoromethyl)nicotinonitrile], the half-maximal inhibitory concentration (IC50) was over 6.25 µM.

Compound `C=CC(=O)N1CCN(C2CN(c3cc(N4CCC5(C=CCOC5)CC4)nc(C(F)F)c3C)C2)CC1` [Compound 3-072, 1-(4-(1-(2-(difluoromethyl)-3-methyl-6-(2-oxa-9-azaspiro[5.5]undec-4-en-9-yl)pyridin-4-yl)azetidin-3-yl)piperazin-1-yl)prop-2-en-1-one] came in with an IC50 of 4.9 µM.

For the compound `C=CC(=O)N1CCN([C@@H]2CN(c3cc(N4CCC5(C[C@@H]4C)OCC=C5C)nc(C(F)(F)F)n3)[C@@H]2C)CC1` (stereo partly drawn) [Compound 3-006, 1-(4-((2R,3R)-1-(6-(4,7-dimethyl-1-oxa-8-azaspiro[4.5]dec-3-en-8-yl)-2-(trifluoromethyl)pyrimidin-4-yl)-2-methylazetidin-3-yl)piper-azin-1-yl)prop-2-en-1-one], the IC50 was 2.24 µM.

In turn, `C=CC(=O)N1CCN(C2CN(c3cc(N4CCC5(CC4)CC5)nc(C(F)(F)F)c3C#N)C2)CC1` [Compound 3-038, 4-(3-(4-acryloylpiperazin-1-yl)azetidin-1-yl)-6-(6-azaspiro[2.5]octan-6-yl)-2-(trifluoromethyl)nicotinonitrile] showed an IC50 of 5.7 µM.

Take `C=CC(=O)N1CCN(C2CN(c3cc(N4CCC5(CC4)CC(F)(F)CO5)nc(C(F)(F)F)c3C#N)C2)CC1` [Compound 3-044, 4-(3-(4-acryloylpiperazin-1-yl)azetidin-1-yl)-6-(3,3-difluoro-1-oxa-8-azaspiro[4.5]decan-8-yl)-2-(trifluoromethyl)nicotinonitrile]: the IC50 turned out to be 3.32 µM.

Consider `C=CC(=O)N1CCN(C2CN(c3cc(N4CCC5(CC4)CC(F)(F)C5)nc(C(F)(F)F)c3C#N)C2)CC1` [Compound 3-037, 4-(3-(4-acryloylpiperazin-1-yl)azetidin-1-yl)-6-(2,2-difluoro-7-azaspiro[3.5]nonan-7-yl)-2-(trifluoromethyl)nicotinonitrile], for which the IC50 turned out to be 3.3 µM.

Compound `C=CC(=O)N1CCN(C2CN(c3cc(N4CCC5(CC4)O[C@@H](C)C=C5Cl)nc(C(F)(F)F)c3C#N)C2)CC1` (single isomer, unassigned) [Compound 3-067-2] had an IC50 of 0.867 µM.

`C=CC(=O)N1CCN(C2CN(c3cc(N4CCC5(CC4)COCCO5)nc(C(F)(F)F)c3C#N)C2)CC1` [Compound 3-024, 4-(3-(4-acryloylpiperazin-1-yl)azetidin-1-yl)-6-(1,4-dioxa-9-azaspiro[5.5]undecan-9-yl)-2-(trifluoromethyl)nicotinonitrile] came in with an IC50 of 6.1 µM.
